Reference: US11312713B2, “Imidazo[4,5-C]quinoline derivatives as LRRK2 inhibitors” (Pfizer Inc., priority 2017, dated 2022)

What was measured:
[1] = target: LRRK2, WT (GST-tagged truncated LRRK2) (Homo sapiens, UniProt Q5S007); experiment: LRRK2 kinase assay (LanthaScreen), wild type; format: biochemical; settings: wild type LRRK2; LanthaScreen, LRRKtide substrate
Experimental: (§1) LRRK2 kinase activity was measured using Lantha Screen technology from Invitrogen. GST-tagged truncated LRRK2 from Invitrogen (Cat #PV4874) was incubated with a fluorescein-labeled peptide substrate based upon ezrin/radixin/moesin (ERM), also known as LRRKtide (Invitrogen cat #PR8976A), in the presence of a dose response of compound. Upon completion, the assay was stopped and detected with a terbium labeled anti-phospho-ERM antibody (Invitrogen, cat #PR8975A). […] Using Echo acoustic dispensing, 60 nL of compound was transferred to a low volume Corning 384-well assay plate. 3 μL of a working solution of substrate (200 nM LRRKtide, 2 mM ATP) prepared in assay buffer (50 mM HEPES, pH 7.5, 3 mM MgCl2, with 2 mM DTT and 0.01% Brij35 added fresh) was added to the 60 nL compound assay plate. The kinase reaction was started with 3 μL of a working solution of LRRK2 enzyme at a concentration of 4 μg/m L. The final reaction concentrations were 100 nM LRRKtide, 1 mM ATP, 2 μg/mL LRRK2 enzyme and a compound dose response with a top dose of 3 μM. The reaction was allowed to progress at room temperature for 30 minutes and then stopped with the addition of 6 μL of detection buffer (20 mM Tris pH 7.6, 0.01% NP-40, 6 mM EDTA with 2 nM terbium labeled antiphospho-ERM). […] All final concentrations of substrate ATP and enzyme were the same.

mutant G2019S LRRK2 = mutant G2019S LRRK2 (Homo sapiens (Human), UniProt Q5S007, G2019S); experiment: LRRK2 kinase assay (LanthaScreen), G2019S mutant; format: biochemical; settings: G2019S mutant LRRK2; LanthaScreen, LRRKtide substrate; read-out: LRRK2, G2019S IC50
mutant G2019S LRRK2, sequence (Q5S007 whole entry G2019S): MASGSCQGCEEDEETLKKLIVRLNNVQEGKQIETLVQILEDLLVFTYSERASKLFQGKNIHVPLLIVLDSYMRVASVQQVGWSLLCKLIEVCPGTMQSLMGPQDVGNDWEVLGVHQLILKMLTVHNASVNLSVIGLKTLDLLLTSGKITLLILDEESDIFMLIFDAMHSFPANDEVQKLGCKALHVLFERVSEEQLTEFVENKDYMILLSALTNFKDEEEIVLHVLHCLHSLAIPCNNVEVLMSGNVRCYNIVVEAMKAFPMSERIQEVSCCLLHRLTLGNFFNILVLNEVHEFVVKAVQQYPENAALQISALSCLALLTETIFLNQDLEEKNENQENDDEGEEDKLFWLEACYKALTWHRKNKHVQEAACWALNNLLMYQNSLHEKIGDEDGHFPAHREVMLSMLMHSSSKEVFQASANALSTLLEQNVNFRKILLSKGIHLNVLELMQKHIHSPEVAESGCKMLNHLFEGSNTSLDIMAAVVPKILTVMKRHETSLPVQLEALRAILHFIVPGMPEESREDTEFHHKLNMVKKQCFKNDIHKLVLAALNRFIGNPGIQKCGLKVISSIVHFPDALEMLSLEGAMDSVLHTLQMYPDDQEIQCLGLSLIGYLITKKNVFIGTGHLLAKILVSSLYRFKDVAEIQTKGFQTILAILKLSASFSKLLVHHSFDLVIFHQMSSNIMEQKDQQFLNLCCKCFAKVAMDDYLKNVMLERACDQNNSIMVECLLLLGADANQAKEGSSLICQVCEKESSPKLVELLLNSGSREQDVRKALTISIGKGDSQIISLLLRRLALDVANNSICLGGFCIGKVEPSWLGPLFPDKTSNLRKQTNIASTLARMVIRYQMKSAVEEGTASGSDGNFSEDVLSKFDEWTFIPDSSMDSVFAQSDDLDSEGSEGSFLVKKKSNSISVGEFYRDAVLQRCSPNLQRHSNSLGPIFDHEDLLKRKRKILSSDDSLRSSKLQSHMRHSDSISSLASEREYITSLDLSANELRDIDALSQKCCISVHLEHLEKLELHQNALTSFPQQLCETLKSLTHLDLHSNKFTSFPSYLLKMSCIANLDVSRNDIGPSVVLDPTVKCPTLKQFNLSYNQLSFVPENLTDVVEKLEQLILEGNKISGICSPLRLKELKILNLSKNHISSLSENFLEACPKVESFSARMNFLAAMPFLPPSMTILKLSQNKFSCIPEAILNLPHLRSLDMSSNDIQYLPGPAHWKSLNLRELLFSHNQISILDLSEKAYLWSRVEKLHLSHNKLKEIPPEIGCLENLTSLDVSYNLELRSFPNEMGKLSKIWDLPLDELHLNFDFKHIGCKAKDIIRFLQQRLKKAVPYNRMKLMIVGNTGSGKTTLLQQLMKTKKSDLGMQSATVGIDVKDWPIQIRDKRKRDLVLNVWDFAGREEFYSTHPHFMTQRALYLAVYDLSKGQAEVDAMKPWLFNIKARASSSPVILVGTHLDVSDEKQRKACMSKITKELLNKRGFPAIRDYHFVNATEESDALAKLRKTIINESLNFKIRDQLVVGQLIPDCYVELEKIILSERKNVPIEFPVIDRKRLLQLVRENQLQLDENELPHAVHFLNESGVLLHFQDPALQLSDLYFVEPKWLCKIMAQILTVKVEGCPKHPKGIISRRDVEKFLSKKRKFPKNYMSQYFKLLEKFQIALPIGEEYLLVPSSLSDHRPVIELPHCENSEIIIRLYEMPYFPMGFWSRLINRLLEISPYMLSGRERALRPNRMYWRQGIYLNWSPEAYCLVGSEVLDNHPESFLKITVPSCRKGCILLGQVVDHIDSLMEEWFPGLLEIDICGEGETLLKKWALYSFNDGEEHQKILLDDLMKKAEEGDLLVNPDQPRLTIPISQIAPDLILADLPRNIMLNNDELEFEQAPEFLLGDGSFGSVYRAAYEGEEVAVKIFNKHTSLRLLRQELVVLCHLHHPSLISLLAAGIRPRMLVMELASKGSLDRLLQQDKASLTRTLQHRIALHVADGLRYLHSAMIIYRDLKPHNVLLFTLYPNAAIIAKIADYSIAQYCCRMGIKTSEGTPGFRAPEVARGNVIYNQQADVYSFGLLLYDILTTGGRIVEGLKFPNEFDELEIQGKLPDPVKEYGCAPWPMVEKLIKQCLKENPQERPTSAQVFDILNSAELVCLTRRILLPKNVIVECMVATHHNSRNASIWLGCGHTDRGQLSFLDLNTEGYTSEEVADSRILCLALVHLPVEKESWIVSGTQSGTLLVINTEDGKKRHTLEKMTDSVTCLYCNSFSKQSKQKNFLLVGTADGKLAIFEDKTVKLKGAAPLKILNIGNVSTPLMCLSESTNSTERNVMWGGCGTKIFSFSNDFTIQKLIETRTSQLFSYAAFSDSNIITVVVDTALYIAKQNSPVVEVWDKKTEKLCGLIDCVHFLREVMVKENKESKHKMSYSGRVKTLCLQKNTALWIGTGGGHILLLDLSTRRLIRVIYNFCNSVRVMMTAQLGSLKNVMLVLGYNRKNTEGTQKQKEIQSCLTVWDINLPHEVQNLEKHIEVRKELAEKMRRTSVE
Experimental: as §1

SMILES	IC50 [1]	IC50 (mutant G2019S LRRK2)
COc1cnn(Cc2nc3cnc4ccc(C#N)cc4c3n2[C@@H]2CCO[C@H](C)C2)c1 [Example 57, 2-[(4-methoxy-1H-pyrazol-1-yl)methyl]-1-[(2R,4R)-2-methyltetrahydro-2H-pyran-4-yl]-1H-imidazo[4,5-c]quinoline-8-carbonitrile]	7.43 nM	5.4 nM
C[C@@H]1C[C@H](n2c(Cc3nccs3)nc3cnc4ccc(Cl)cc4c32)CCO1 [Example 58, 8-chloro-1-[(2R,4R)-2-methyltetrahydro-2H-pyran-4-yl]-2-(1,3-thiazol-2-ylmethyl)-1H-imidazo[4,5-c]quinoline]	5.35 nM	3 nM
Cc1cc(Cc2nc3cnc4ccc(Cl)cc4c3n2C2CCOC(C(F)F)C2)no1 (stereo not drawn) [Example 59, 8-chloro-1-[cis-2-(difluoromethyl)tetrahydro-2H-pyran-4-yl]-2-[(5-methyl-1,2-oxazol-3-yl)methyl]-1H-imidazo[4,5-c]quinoline]	6.6 nM	8.16 nM
C[C@@H]1C[C@H](n2c(Cc3nccs3)nc3cnc4ccc(C#N)cc4c32)CCO1 [Example 61, 1-[(2R,4R)-2-methyltetrahydro-2H-pyran-4-yl]-2-(1,3-thiazol-2-ylmethyl)-1H-imidazo[4,5-c]quinoline-8-carbonitrile]	5.79 nM	4.17 nM
Cc1cn(Cc2nc3cnc4ccc(Cl)cc4c3n2[C@@H]2CCN(C)C2)nn1 [Example 62, 8-chloro-1-[(3R)-1-methylpyrrolidin-3-yl]-2-[(4-methyl-1H-1,2,3-triazol-1-yl)methyl]-1H-imidazo[4,5-c]quinoline]	5.78 nM	6.5 nM
C[C@@H]1C[C@H](n2c(Cc3csnn3)nc3cnc4ccc(C(F)(F)F)cc4c32)CCO1 [Example 63, 1-[(2R,4R)-2-methyltetrahydro-2H-pyran-4-yl]-2-(1,2,3-thiadiazol-4-ylmethyl)-8-(trifluoromethyl)-1H-imidazo[4,5-c]quinoline]	6.96 nM	3.04 nM
C[C@@H]1C[C@H](n2c(Cc3nccs3)nc3cnc4ccc(F)cc4c32)CCO1 [Example 64, 8-fluoro-1-[(2R,4R)-2-methyltetrahydro-2H-pyran-4-yl]-2-(1,3-thiazol-2-ylmethyl)-1H-imidazo[4,5-c]quinoline]	9.8 nM	6.87 nM
C[C@@H]1C[C@H](n2c(Cn3cncn3)nc3cnc4ccc(C(F)(F)F)cc4c32)CCO1 [Example 66, 1-[(2R,4R)-2-methyltetrahydro-2H-pyran-4-yl]-2-(1H-1,2,4-triazol-1-ylmethyl)-8-(trifluoromethyl)-1H-imidazo[4,5-c]quinoline]	8.32 nM	8.01 nM
Cc1cnc(Cc2nc3cnc4ccc(Cl)cc4c3n2[C@@H]2CCN(C)C2)cn1 [Example 67, 8-chloro-2-[(5-methylpyrazin-2-yl)methyl]-1-[(3R)-1-methylpyrrolidin-3-yl]-1H-imidazo[4,5-c]quinoline]	8.03 nM	8.55 nM
C[C@@H]1C[C@H](n2c(Cc3cscn3)nc3cnc4ccc(C(F)(F)F)cc4c32)CCO1 [Example 69, 1-[(2R,4R)-2-methyltetrahydro-2H-pyran-4-yl]-2-(1,3-thiazol-4-ylmethyl)-8-(trifluoromethyl)-1H-imidazo[4,5-c]quinoline]	7.39 nM	3.33 nM
Cc1nnc(Cc2nc3cnc4ccc(C(F)(F)F)cc4c3n2[C@@H]2CCO[C@H](C)C2)o1 [Example 70, 2-[(5-methyl-1,3,4-oxadiazol-2-yl)methyl]-1-[(2R,4R)-2-methyltetrahydro-2H-pyran-4-yl]-8-(trifluoromethyl)-1H-imidazo[4,5-c]quinoline]	13.7 nM	7.59 nM
CC1(C)CC(n2c(Cn3cncn3)nc3cnc4ccc(Cl)cc4c32)CCO1 (centres unmarked) [Example 71, 8-chloro-1-(2,2-dimethyltetrahydro-2H-pyran-4-yl)-2-(1H-1,2,4-triazol-1-ylmethyl)-1H-imidazo[4,5-c]quinoline]	13.7 nM	11.9 nM
COc1cnn(Cc2nc3cnc4ccc(Cl)cc4c3n2CC(C)(F)F)c1 [Example 72, 8-chloro-1-(2,2-difluoropropyl)-2-[(4-methoxy-1H-pyrazol-1-yl)methyl]-1H-imidazo[4,5-c]quinoline]	12.1 nM	7.17 nM
C[C@@H]1C[C@H](n2c(Cc3cnc(C(F)(F)F)cn3)nc3cnc4ccc(F)cc4c32)CCO1 [Example 73, 8-fluoro-1-[(2R,4R)-2-methyltetrahydro-2H-pyran-4-yl]-2-{[5-(trifluoromethyl)pyrazin-2-yl]methyl}-1H-imidazo[4,5-c]quinoline]	16.9 nM	13 nM
Cc1nnc(Cc2nc3cnc4ccc(C(F)(F)F)cc4c3n2[C@@H]2CCO[C@H](C)C2)s1 [Example 74, 1-[(2R,4R)-2-methyltetrahydro-2H-pyran-4-yl]-2-[(5-methyl-1,3,4-thiadiazol-2-yl)methyl]-8-(trifluoromethyl)-1H-imidazo[4,5-c]quinoline]	26.1 nM	13.5 nM
Cc1nc(Cc2nc3cnc4ccc(Cl)cc4c3n2C2CCOCC2(F)F)no1 (centres unmarked) [Example 75]	25.7 nM	26.5 nM
Cc1cc(Cc2nc3cnc4ccc(C(F)(F)F)cc4c3n2[C@@H]2CCO[C@H](C)C2)ncn1 [Example 76, 2-[(6-methylpyrimidin-4-yl)methyl]-1-[(2R,4R)-2-methyltetrahydro-2H-pyran-4-yl]-8-(trifluoromethyl)-1H-imidazo[4,5-c]quinoline]	17.3 nM	12 nM
CC(C#N)Cc1nc2cnc3ccc(Cl)cc3c2n1[C@@H]1CCO[C@H](C)C1 (stereo partly drawn) [Example 78, 3-{8-chloro-1-[(2R,4R)-2-methyltetrahydro-2H-pyran-4-yl]-1H-imidazo[4,5-c]quinolin-2-yl}-2-methylpropanenitrile]	25.8 nM	13.2 nM
Fc1ccc2ncc3nc(Cc4csnn4)n(C4CCC(F)C4)c3c2c1 (stereo not drawn) [Example 79, 8-fluoro-1-[cis-3-fluorocyclopentyl]-2-(1,2,3-thiadiazol-4-ylmethyl)-1H-imidazo[4,5-c]quinoline]	9.73 nM	9.75 nM
C[C@@H]1C[C@H](n2c(CCC#N)nc3cnc4ccc(Cl)cc4c32)CCO1 [Example 80, 3-{8-chloro-1-[(2R,4R)-2-methyltetrahydro-2H-pyran-4-yl]-1H-imidazo[4,5-c]quinolin-2-yl}propanenitrile]	9.4 nM	11.3 nM
Cc1nnn(Cc2nc3cnc4ccc(C(F)(F)F)cc4c3n2[C@@H]2CCO[C@H](C)C2)n1 [Example 81, 1-[(2R,4R)-2-methyltetrahydro-2H-pyran-4-yl]-2-[(5-methyl-2H-tetrazol-2-yl)methyl]-8-(trifluoromethyl)-1H-imidazo[4,5-c]quinoline]	16.9 nM	7.5 nM
Cc1cn(Cc2nc3cnc4ccc(Cl)cc4c3n2C2CN(C)CC2(F)F)nn1 (centres unmarked) [Example 82, 8-chloro-1-(4,4-difluoro-1-methylpyrrolidin-3-yl)-2-[(4-methyl-1H-1,2,3-triazol-1-yl)methyl]-1H-imidazo[4,5-c]quinoline]	6.33 nM	4.64 nM
CN1CC(n2c(Cn3cnnn3)nc3cnc4ccc(Cl)cc4c32)C(F)(F)C1 (centres unmarked) [Example 83, 8-chloro-1-(4,4-difluoro-1-methylpyrrolidin-3-yl)-2-(1H-tetrazol-1-ylmethyl)-1H-imidazo[4,5-c]quinoline]	7.91 nM	11.6 nM
CN1CC(n2c(Cc3ncn(C)n3)nc3cnc4ccc(Cl)cc4c32)C(F)(F)C1 (centres unmarked) [Example 84, 8-chloro-1-(4,4-difluoro-1-methylpyrrolidin-3-yl)-2-[(1-methyl-1H-1,2,4-triazol-3-yl)methyl]-1H-imidazo[4,5-c]quinoline]	10.2 nM	18.2 nM
CN1CC(n2c(Cn3cnnn3)nc3cnc4ccc(Cl)cc4c32)C(F)(F)C1 (centres unmarked) [Example 86, 8-chloro-1-(4,4-difluoro-1-methylpyrrolidin-3-yl)-2-(1H-tetrazol-1-ylmethyl)-1H-imidazo[4,5-c]quinoline]	6.66 nM	4.4 nM
Cc1cnn(Cc2nc3cnc4ccc(Cl)cc4c3n2C2CN(C)CC2(F)F)n1 (centres unmarked) [Example 87, 8-chloro-1-(4,4-difluoro-1-methylpyrrolidin-3-yl)-2-[(4-methyl-2H-1,2,3-triazol-2-yl)methyl]-1H-imidazo[4,5-c]quinoline]	7.04 nM	4.51 nM
Cc1nc(Cc2nc3cnc4ccc(Cl)cc4c3n2C2CN(C)CC2(F)F)no1 (centres unmarked) [Example 88, 8-chloro-1-(4,4-difluoro-1-methylpyrrolidin-3-yl)-2-[(5-methyl-1,2,4-oxadiazol-3-yl)methyl]-1H-imidazo[4,5-c]quinoline]	9.25 nM	8.16 nM
Cc1nnc(Cc2nc3cnc4ccc(Cl)cc4c3n2C2CN(C)CC2(F)F)s1 (centres unmarked) [Example 89, 8-chloro-1-(4,4-difluoro-1-methylpyrrolidin-3-yl)-2-[(5-methyl-1,3,4-thiadiazol-2-yl)methyl]-1H-imidazo[4,5-c]quinoline]	13.9 nM	8.03 nM
